Experimental data from US20140249024A1, “Pesticidal Methods Using Substituted 3-pyridyl Thiazole Compounds and Derivatives for Combating Animal Pests II” (BASF SE, priority 2011, published 2014).

Experiments:
Assay type in all cases: in vivo
[1] = tested on: Silverleaf Whitefly (bemisia argentifolii); experiment: Silverleaf whitefly adult mortality on sprayed cotton plants; details: 72 h, spray on cotton plants, whitefly adults, assessed 3 days after treatment, read-out: mortality in comparison with untreated controls
Description: (§1) The active compounds were formulated in cyclohexanone as a 10,000 ppm solution supplied in tubes. The tubes were inserted into an automated electrostatic sprayer equipped with an atomizing nozzle and they serve as stock solutions for which lower dilutions are made in 50% acetone:50% water (v/v). A nonionic surfactant (Kinetic®) was included in the solution at a volume of 0.01% (v/v).
Cotton plants at the cotyledon stage (one plant per pot) were sprayed by an automated electrostatic plant sprayer equipped with an atomizing spray nozzle. The plants were dried in the sprayer fume hood and then removed from the sprayer. Each pot was placed into a plastic cup and about 10 to 12 whitefly adults (approximately 3-5 days old) were introduced. The insects were collected using an aspirator and a nontoxic Tygon® tubing connected to a barrier pipette tip. The tip, containing the collected insects, were then gently inserted into the soil containing the treated plant, allowing insects to crawl out of the tip to reach the foliage for feeding. Cups were covered with a reusable screened lid. Test plants were maintained in a growth room at about 25° C. and about 20-40% relative humidity for 3 days, avoiding direct exposure to fluorescent light (24 hour photoperiod) to prevent trapping of heat inside the cup. Mortality was assessed 3 days after treatment, compared to untreated control plants.

[2] = tested on: Green Peach Aphid (Myzus persicae); experiment: Green peach aphid mortality on sprayed bell pepper plants; details: 120 h, spray on infested bell pepper plants, determined after 5 days, read-out: mortality in comparison with untreated controls
Description: as §1, with “served” for “serve”, “were” for “are”
Bell pepper plants at the first true-leaf stage were infested prior to treatment by placing heavily infested leaves from the main colony on top of the treatment plants. Aphids were allowed to transfer overnight to accomplish an infestation of 30-50 aphids per plant and the host leaves were removed. The infested plants were then sprayed by an automated electrostatic plant sprayer equipped with an atomizing spray nozzle. The plants were dried in the sprayer fume hood, removed, and then maintained in a growth room under fluorescent lighting in a 24-hr photoperiod at about 25° C. and about 20-40% relative humidity. Aphid mortality on the treated plants, relative to mortality on untreated control plants, was determined after 5 days.

[3] = tested on: Cowpea Aphid (Aphis craccivora); experiment: Cowpea aphid test on sprayed potted cowpea plants; details: spray on cowpea plants, population reduction assessed after 24, 72 and 120 hours, read-out: mortality in comparison with untreated controls
Experimental: The active compound was dissolved at the desired concentration in a mixture of 1:1 (vol:vol) distilled water:acetone. The test solution was prepared at the day of use.
Potted cowpea plants colonized with approximately 100-150 aphids of various stages were sprayed after the pest population had been recorded. Population reduction was assessed after 24, 72, and 120 hours.

[4] = tested on: Cotton Aphid (Aphis gossypii); experiment: Cotton aphid mortality on dipped cotton cotyledons; details: 120 h, mortality counts after 5 days, read-out: mortality in comparison with untreated controls
Description: The active compounds were formulated in 50:50 (vol:vol) acetone: water and 100 ppm Kinetica™ surfactant.
Cotton plants at the cotyledon stage (one plant per pot) weare infested by placing a heavily infested leaf from the main colony on top of each cotyledon. The aphids were allowed to transfer to the host plant overnight, and the leaf used to transfer the aphids was removed. The cotyledons were dipped in the test solution and allowed to dry. After 5 days, mortality counts were made.

Measured: mortality at 500 ppm

Clc1nc(-c2cccnc2)sc1-c1ccccn1 [C.4, 4-chloro-5-(2-pyridyl)-2-(3-pyridyl)thiazole]
≥ 75%: [1] | [2] | [3]

FC(F)(F)c1nc(-c2cccnc2)sc1-c1ccn(-c2ncccn2)n1 [C.2, 2-[3-(2-Pyridin-3-yl-4-trifluoromethyl-thiazol-5-yl)-pyrazol-1-yl]-pyrimidine]
≥ 75%: [2] | [4] | [3]
